From ChEMBL document CHEMBL5154799, “Discovery of a Novel Stilbene Derivative as a Microtubule Targeting Agent Capable of Inducing Cell Ferroptosis” (J Med Chem, 2022)
Calls of active or inactive are those of the source. No cut-off for these calls is given here.

How the values were obtained:
Type in all cases: functional, cell-based
A549 [1] = test: Antiproliferative activity against human A549 cells assessed as cell viability incubated for 48 hrs by MTT assay; conditions: A549, 48 h
HeLa = test: Antiproliferative activity against human HeLa cells assessed as cell viability incubated for 48 hrs by MTT assay
A2780 = test: Antiproliferative activity against human A2780 cells assessed as cell viability incubated for 48 hrs by MTT assay; conditions: A2780, 48 h
HCT-8 = test: Antiproliferative activity against human HCT-8 cells assessed as cell viability incubated for 48 hrs by MTT assay; conditions: HCT-8, 48 h
MCF7 = test: Antiproliferative activity against human MCF7 cells assessed as cell viability incubated for 48 hrs by MTT assay; conditions: MCF7, 48 h
A549 [2] = test: Induction of apoptosis in human A549 cells assessed as cell viability pretreated with caspase inhibitor Z-VAD-FMK for 24 hrs followed by incubation with compound at 100 nM and measured after 48 hrs by CCK-8 assay
A549 [3] = test: Induction of apoptosis in human A549 cells assessed as cell viability pretreated with necroptosis inhibitor necrostatin-I for 24 hrs followed by incubation with compound at 100 nM and measured after 48 hrs by CCK-8 assay
A549 [4] = test: Induction of apoptosis in human A549 cells assessed as cell viability pretreated with autophagy inhibitor 3-methyladenine for 24 hrs followed by incubation with compound at 100 nM and measured after 48 hrs by CCK-8 assay
A549 [5] = test: Induction of apoptosis in human A549 cells assessed as cell viability pretreated with ferroptosis inhibitor desferoxamine for 24 hrs followed by incubation with compound at 100 nM and measured after 48 hrs by CCK-8 assay
A549 [6] = test: Induction of apoptosis in human A549 cells assessed as cell viability pretreated with ferroptosis inhibitor ferrostatin-1 for 24 hrs followed by incubation with compound at 100 nM and measured after 48 hrs by CCK-8 assay

SMILES | IC50 (A549 [1]) [nM] | IC50 (HeLa) [nM] | IC50 (A2780) [nM] | IC50 (HCT-8) [nM] | IC50 (MCF7) [nM] | Activity (A549 [2]) | Activity (A549 [3]) | Activity (A549 [4]) | Activity (A549 [5]) | Activity (A549 [6])
COc1ccc(C(=O)c2ccc(OC)c3c2OC(C)(C)C=C3)c(NC(=O)CN(C)C)c1 | 890 | 1050 | 790 | 1590 | 2680 | – | – | – | – | –
COc1ccc(C(=O)c2ccc(OC)c3c2OC(C)(C)C=C3)c(NC(=O)CBr)c1 | 1210 | 2140 | 980 | 3250 | 2360 | – | – | – | – | –
C=C(c1cc(OC)c(OC)c(OC)c1)c1ccc(OC)c(O)c1NC(=O)CN(C)C | 50 | 120 | 90 | 110 | 210 | – | – | – | – | –
C=C(c1ccc2c(c1)C=CC(C)(C)O2)c1ccc(OC)cc1NC(=O)CN | 60 | 160 | 140 | 220 | 420 | – | – | – | – | –
C=C(c1ccc(OC)cc1NC(=O)CNCC)c1ccc(OC)c2c1OC(C)(C)C=C2 | 970 | 1090 | 1030 | 1380 | 2100 | – | – | – | – | –
COc1ccc(C(=O)c2ccc3c(c2)C=CC(C)(C)O3)c(NC(=O)CO)c1 | 90 | 240 | 130 | 250 | 200 | – | – | – | – | –
C=C(c1ccc(OC)cc1NC(=O)CN(C)C)c1ccc(OC)c2c1OC(C)(C)C=C2 | 270 | 900 | 420 | 690 | 500 | – | – | – | – | –
CCNCC(=O)Nc1cc(OC)ccc1C(=O)c1cc(OC)c(OC)c(OC)c1 | 750 | 2100 | 950 | 1560 | 1050 | – | – | – | – | –
COc1ccc(C(=O)c2ccc3c(c2)C=CC(C)(C)O3)c(NC(=O)CBr)c1 | 1980 | 3050 | 1870 | 3260 | 2880 | – | – | – | – | –
C=C(c1ccc2c(c1)C=CC(C)(C)O2)c1ccc(OC)cc1NC(=O)CO | 40 | 100 | 110 | 220 | 390 | – | – | – | – | –
C=C(c1cc(OC)c(OC)c(OC)c1)c1ccc(OC)cc1NC(=O)CN | 40 | 70 | 30 | 60 | 190 | – | – | – | – | –
CCNCC(=O)Nc1cc(OC)ccc1C(=O)c1ccc2c(c1)C=CC(C)(C)O2 | 1300 | 3110 | 2070 | 3990 | 6310 | – | – | – | – | –
COc1ccc(C(=O)c2ccc(OC)c3c2OC(C)(C)C=C3)c(NC(=O)CN)c1 | 270 | 410 | 380 | 370 | 410 | – | – | – | – | –
COc1ccc(C(=O)c2ccc(OC)c3c2C=CC(C)(C)O3)c(NC(=O)CO)c1 | 100 | 310 | 420 | 630 | 940 | – | – | – | – | –
C=C(c1cc(OC)c(OC)c(OC)c1)c1ccc(OC)cc1NC(=O)CN(C)C | 130 | 370 | 240 | 340 | 390 | – | – | – | – | –
C=C(c1ccc(OC)cc1NC(=O)CN)c1ccc(OC)c2c1OC(C)(C)C=C2 | 50 | 120 | 80 | 190 | 220 | – | – | – | – | –
C=C(c1ccc(OC)cc1NC(=O)CNC)c1ccc(OC)c2c1C=CC(C)(C)O2 | 320 | 500 | 720 | 980 | 1010 | – | – | – | – | –
C=C(c1ccc(OC)cc1NC(=O)CNC)c1ccc(OC)c2c1OC(C)(C)C=C2 | 150 | 310 | 210 | 320 | 400 | – | – | – | – | –
C=C(c1cc(OC)c(OC)c(OC)c1)c1ccc(OC)cc1NC(=O)CNCC | 260 | 430 | 450 | 590 | 860 | – | – | – | – | –
CNCC(=O)Nc1cc(OC)ccc1C(=O)c1ccc2c(c1)C=CC(C)(C)O2 | 800 | 970 | 850 | 1010 | 1210 | – | – | – | – | –
C=C(c1ccc2c(c1)C=CC(C)(C)O2)c1ccc(OC)cc1NC(=O)CNCC | 1180 | 1580 | 1870 | 2220 | 3370 | – | – | – | – | –
C=C(c1cc(OC)c(OC)c(OC)c1)c1ccc(OC)cc1NC(=O)CNC | 100 | 140 | 140 | 190 | 240 | – | – | – | – | –
C=C(c1cc(OC)c(OC)c(OC)c1)c1ccc(OC)c(O)c1NC(C)=O | 80 | 90 | 170 | 340 | 270 | Active | Active | Active | Active | Active

SMILES | IC50 (A549 [1]) [nM] | IC50 (HeLa) [nM] | IC50 (A2780) [nM] | IC50 (HCT-8) [nM] | IC50 (MCF7) [nM] | Activity (A549 [2]) | Activity (A549 [3]) | Activity (A549 [4]) | Activity (A549 [5]) | Activity (A549 [6])
COc1ccc(C(=O)c2ccc3c(c2)C=CC(C)(C)O3)c(NC(=O)CN)c1 | 310 | 580 | 590 | 490 | 680 | – | – | – | – | –
COc1ccc(C(=O)c2ccc(OC)c3c2C=CC(C)(C)O3)c(NC(=O)CN(C)C)c1 | 1850 | 3620 | 3990 | 5660 | 6530 | – | – | – | – | –
C=C(c1ccc2c(c1)C=CC(C)(C)O2)c1ccc(OC)cc1NC(=O)CN(C)C | 430 | 640 | 510 | 690 | 940 | – | – | – | – | –
C=C(c1ccc2c(c1)C=CC(C)(C)O2)c1ccc(OC)cc1NC(=O)CNC | 200 | 410 | 320 | 590 | 720 | – | – | – | – | –
COc1ccc(C(=O)c2cc(OC)c(OC)c(OC)c2)c(NC(=O)CN(C)C)c1 | 590 | 470 | 580 | 790 | 790 | – | – | – | – | –
COc1ccc(C(=O)c2ccc3c(c2)C=CC(C)(C)O3)c(NC(=O)CN(C)C)c1 | 1160 | 1260 | 1020 | 2420 | 3560 | – | – | – | – | –
CCNCC(=O)Nc1cc(OC)ccc1C(=O)c1ccc(OC)c2c1OC(C)(C)C=C2 | 1050 | 2690 | 1980 | 3690 | 5200 | – | – | – | – | –
C=C(c1cc(OC)c(OC)c(OC)c1)c1ccc(OC)c(O)c1NC(=O)COCC | 880 | 690 | 1230 | 910 | 1050 | – | – | – | – | –
COc1ccc(C(=O)c2ccc(OC)c3c2C=CC(C)(C)O3)c(NC(=O)CN)c1 | 420 | 100 | 890 | 1050 | 1250 | – | – | – | – | –
C=C(c1ccc(OC)cc1NC(=O)CN)c1ccc(OC)c2c1C=CC(C)(C)O2 | 90 | 200 | 400 | 520 | 780 | – | – | – | – | –
CNCC(=O)Nc1cc(OC)ccc1C(=O)c1cc(OC)c(OC)c(OC)c1 | 610 | 690 | 580 | 780 | 550 | – | – | – | – | –
COc1ccc(C(=O)c2ccc(OC)c3c2C=CC(C)(C)O3)c(NC(=O)CBr)c1 | 2460 | 3680 | 2150 | 4360 | 3290 | – | – | – | – | –
C=C(c1ccc(OC)cc1NC(=O)CO)c1ccc(OC)c2c1C=CC(C)(C)O2 | 70 | 100 | 280 | 470 | 590 | – | – | – | – | –
C=C(c1ccc(OC)cc1NC(=O)CNCC)c1ccc(OC)c2c1C=CC(C)(C)O2 | 1870 | 2590 | 2010 | 3050 | 2920 | – | – | – | – | –
COc1ccc(C(C)c2cc(OC)c(OC)c(OC)c2)c(NC(=O)CO)c1O (stereo not given) | 180 | 390 | 280 | 590 | 790 | – | – | – | – | –
COc1ccc(C(=O)c2cc(OC)c(OC)c(OC)c2)c(NC(=O)CN)c1 | 220 | 130 | 190 | 330 | 270 | – | – | – | – | –
COc1ccc(/C=C/C(=O)c2ccc(OC)c3c2OC(C)(C)C=C3)cc1 [MILLEPACHINE] | 3950 | 6030 | 3090 | 5020 | 6980 | – | – | – | – | –
CNCC(=O)Nc1cc(OC)ccc1C(=O)c1ccc(OC)c2c1OC(C)(C)C=C2 | 620 | 870 | 620 | 740 | 820 | – | – | – | – | –
CNCC(=O)Nc1cc(OC)ccc1C(=O)c1ccc(OC)c2c1C=CC(C)(C)O2 | 1370 | 2170 | 1590 | 3460 | 3040 | – | – | – | – | –
CCNCC(=O)Nc1cc(OC)ccc1C(=O)c1ccc(OC)c2c1C=CC(C)(C)O2 | 2310 | 4270 | 4090 | 7890 | 7230 | – | – | – | – | –
C=C(c1ccc(OC)cc1NC(=O)CN(C)C)c1ccc(OC)c2c1C=CC(C)(C)O2 | 550 | 790 | 670 | 1920 | 2580 | – | – | – | – | –
C=C(c1cc(OC)c(OC)c(OC)c1)c1ccc(OC)cc1NC(=O)CO | 20 | 30 | 30 | 40 | 110 | – | – | – | – | –
